Read-outs that look alike come from different tables or passages of the source.
Biological target: T1, full-length human cGAS (Homo sapiens, UniProt Q8N884)
T1 construct: The cGAS assay was used to screen 100,000 compounds with full-length human cGAS; 6xHis; made in house
Assay: cGAS enzymatic assay (FP readout), inhibition of cGAS
Format: biochemical
Description: Some exemplary compounds of the disclosure were tested for inhibition of cGAS (30 nM). The results are provided in Table 1 where “A” indicates an IC50 of less than 100 nM, “B” indicates an IC50 of greater than 100 nM and less than 500 nM, “C” indicates an IC50 of greater than 500 nM and less than 1 μM, “D” indicates an IC50 of greater than 1 μM and less than 10 μM, and “E” indicates an IC50 of greater than 10 μM.
A homogenous cGAS enzymatic assay was developed with fluorescence polarization (FP) and time-resolved Forster resonance energy transfer (TR-FRET) readouts (FIG. 2A-D). The cGAS assay was used to screen 100,000 compounds with full-length human cGAS (FIG. 2E), resulting in the identification of novel chemotypes, two of which are further developed in a structure-driven hit-to-lead study (Table 3, below). The assay performance was robust, as indicated by respective Z and Z′ values of 0.59 and 0.63 in the screen; compounds with polarization values greater than three SDs from the mean were considered hits; a scatterplot from 10 plates (3,200 compounds) is shown in FIG. 2D.
Potency and MOA studies, including Mn^2+ sensitivity, are performed using the cGAS enzymatic assay. Dose response experiments are used to determine IC50 values under basal conditions (5 mM MgCl2, 100 μM ATP/GTP), and with the addition of physiological levels of Mn (0.2 mM) using human and mouse cGAS. Ligand optimization is driven by potency with the human enzyme; potency with mouse cGAS informs selection of an appropriate disease model for efficacy studies. Competition with ATP and GTP is assessed by comparing basal IC50 values to those in the presence of saturating ATP or GTP, and subsequently confirmed by measuring velocity vs. substrate at varying ATP or GTP levels. Inhibitor residence times (1/koff) are used as a key parameter for prioritizing compounds and driving SAR, because a longer residence time often results from an allosteric mechanism, and can also correlate with improved cellular activity. The cGAS enzymatic assay is used with the jump dilution method to measure residence times (inhibitor dissociation rates), as described for kinases using the very similar ADP assay. Biophysical methods, including SPR and TSAn, are used as orthologous methods for residence time measurements and kd estimates.

[1] = cGAS (30 nM), no Mn2+, read-out: Inhibition cGAS (IC50 class)
[2] = cGAS (30 nM), with Mn2+, read-out: Inhibition cGAS + Mn^2+ (IC50 class)

T1 sequence (Q8N884 whole entry): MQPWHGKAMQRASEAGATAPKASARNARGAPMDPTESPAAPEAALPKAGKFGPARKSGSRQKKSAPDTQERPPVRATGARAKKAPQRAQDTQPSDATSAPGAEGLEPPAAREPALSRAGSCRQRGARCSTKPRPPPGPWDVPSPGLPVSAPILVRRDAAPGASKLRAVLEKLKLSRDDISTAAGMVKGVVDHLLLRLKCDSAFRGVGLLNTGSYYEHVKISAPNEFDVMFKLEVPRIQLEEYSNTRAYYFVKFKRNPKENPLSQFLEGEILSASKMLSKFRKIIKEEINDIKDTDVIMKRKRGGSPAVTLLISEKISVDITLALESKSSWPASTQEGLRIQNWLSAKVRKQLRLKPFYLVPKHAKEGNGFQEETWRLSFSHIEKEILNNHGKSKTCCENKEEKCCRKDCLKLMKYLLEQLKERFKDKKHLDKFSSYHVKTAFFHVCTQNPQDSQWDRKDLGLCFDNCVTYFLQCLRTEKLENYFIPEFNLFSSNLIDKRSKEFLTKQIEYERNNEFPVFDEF

Work on `COc1ccc2c(-n3ccnc3)ccnc2c1` [Compound 6, 4-(1H-imidazol-1-yl)-7-methoxyquinoline] yielded an IC50 [1] of over 10000 nM and an IC50 [2] of 1000 to 10000 nM.
With `CCOc1cc2c(-n3ccnc3)ccnc2cc1Cl` [Compound 23, 7-chloro-6-ethoxy-4-(1H-imidazol-1-yl)quinolone] the IC50 [1] was 500 to 1000 nM and the IC50 [2] was 100 to 500 nM.
Work on `Clc1ccc2c(-n3ccnc3)ncnc2c1` [Compound 5, 7-chloro-4-(1H-imidazol-1-yl)quinazoline] yielded an IC50 [1] of over 10000 nM and an IC50 [2] of over 10000 nM.
`CCN(CC)CCCC(C)Nc1c2ccc(Cl)cc2nc2ccc(OC)cc12` (stereo not shown) [quinacrine, reference compound] was tested, and the “Effect of Mn^2+ on potency against cGAS” value (Mn2+ at physiological concentration (200 μM)) was “significantly less potent”.
Compound `Clc1ccc2c(-n3ccnc3)cc(-c3ccccc3)nc2c1` [Compound 12, 7-chloro-4-(1H-imidazol-1-yl)-2-phenylquinoline] has an IC50 [1] of 1000 to 10000 nM and an IC50 [2] of 100 to 500 nM.
In the case of `Cc1ccc(S(=O)(=O)Nc2ccc(C(=O)Nc3ccncc3)cc2)cc1` [Compound 24, 4-((4-methylphenyl)sulfonamido)-N-(pyridin-4-yl)benzamide], the IC50 [1] is reported as over 10000 nM.
Work on `Nc1ccc2nccc(-n3ccnc3)c2c1` [Compound 11, 4-(1H-imidazol-1-yl)quinolin-6-amine] yielded an IC50 [1] of over 10000 nM and an IC50 [2] of 1000 to 10000 nM.
`Clc1ccc2c(-n3ccnc3)c(-c3ccccc3)cnc2c1` [Compound 13, 7-chloro-4-(1H-imidazol-1-yl)-3-phenylquinoline] was tested, and the IC50 [1] was 500 to 1000 nM and the IC50 [2] was 100 to 500 nM.
In the case of `O=C(NCc1ccccc1)c1nc2[nH]c3c(c(=O)n2n1)CCC3` [Compound 31, N-benzyl-8-oxo-5,6,7,8-tetrahydro-4H-cyclopenta[d][1,2,4]triazolo[1,5-a]pyrimidine-2-carboxamide], the IC50 [1] is reported as over 10000 nM.
With `COc1ccc(CC(=O)Nc2cccc(C(=O)Nc3ccccc3C(=O)O)c2)cc1` [Compound 29, 2-(3-(2-(4-methoxyphenyl)acetamido)benzamido)benzoic acid] the IC50 [1] was over 10000 nM and the IC50 [2] was over 10000 nM.
`COc1cc2c(-n3ccnc3)ccnc2cc1Br` [Compound 22, 7-bromo-4-(1H-imidazol-1-yl)-6-methoxyquinoline] was tested, and the IC50 [1] was 100 to 500 nM and the IC50 [2] was under 100 nM.
`COc1cc2c(-n3ccnc3)c(C(=O)O)cnc2cc1Cl` [Compound 15, 7-chloro-4-(1H-imidazol-1-yl)-6-methoxyquinoline-3-carboxylic acid] gave an IC50 [1] of 100 to 500 nM and an IC50 [2] of under 100 nM.
Compound `COc1cc2c(N3CCC[C@H]3C(=O)O)nc(-c3ccccc3)nc2cc1Cl` [Compound 17, (7-chloro-6-methoxy-2-phenylquinazolin-4-yl)-L-proline] has an IC50 [1] of 1000 to 10000 nM and an IC50 [2] of over 10000 nM.
Compound `O=C(Nc1ccccc1C(=O)O)c1ccc(NC(=O)c2ccccc2Br)cc1` [Compound 28, 2-(4-(2-bromobenzamido)benzamido)benzoic acid] has an IC50 [1] of over 10000 nM and an IC50 [2] of over 10000 nM.
For `Fc1ccc2c(-n3ccnc3)ccnc2c1` [Compound 8, 7-fluoro-4-(1H-imidazol-1-yl)quinoline], the IC50 [1] was over 10000 nM and the IC50 [2] was over 10000 nM.
With `Cc1cc(-n2ccnc2)c2ccc(Cl)cc2n1` [Compound 18, 7-chloro-4-(1H-imidazol-1-yl)-2-methylquinoline] the IC50 [1] was 500 to 1000 nM and the IC50 [2] was 100 to 500 nM.
Work on `O=C(Cc1ccccc1)Nc1ccc(C(=O)Nc2ccccc2C(=O)O)cc1` [Compound 25, 2-(4-(2-phenylacetamido)benzamido)benzoic acid] yielded an IC50 [1] of over 10000 nM and an IC50 [2] of over 10000 nM.
With `COc1ccc2nccc(-n3ccnc3)c2c1` [Compound 3, 4-(1H-imidazol-1-yl)-6-methoxyquinoline] the IC50 [1] was over 10000 nM and the IC50 [2] was 1000 to 10000 nM.
For `Clc1ccc2c(-n3ccnc3)ccnc2c1` [Compound 1, 7-chloro-4-(1H-imidazol-1-yl)quinolone], the IC50 (5 mM Mg2+, 0.2 mM Mn2+, read-out: IC50 (5 mM Mg^2+, 0.2 mM Mn^2+)) was 790 nM, the IC50 (5 mM Mg2+, no Mn2+, read-out: IC50 (5 mM Mg^2+)) was 5400 nM and the IC50 [1] was 1000 to 10000 nM. For the same compound, the IC50 [2] was 100 to 500 nM.
With `Nc1cc(-n2ccnc2)c2ccc(Cl)cc2n1` [Compound 19, 7-chloro-4-(1H-imidazol-1-yl)quinolin-2-amine] the IC50 [1] was 500 to 1000 nM.
`c1ccc(-c2ccc3nccc(-n4ccnc4)c3c2)cc1` [Compound 10, 4-(1H-imidazol-1-yl)-6-phenylquinoline] was tested, and the IC50 [2] was 1000 to 10000 nM.
`O=C(O)CNc1nc(-c2ccccc2)nc2ccccc12` [Compound 2, (2-phenylquinazolin-4-yl)glycine] gave an IC50 [1] of over 10000 nM and an IC50 [2] of over 10000 nM.
For `COc1ccccc1CC(=O)Nc1cccc(C(=O)Nc2ccccc2C(=O)O)c1` [Compound 30, 2-(3-(2-(2-methoxyphenyl)acetamido)benzamido)benzoic acid], the IC50 [1] was over 10000 nM.
`Brc1ccc2nccc(-n3ccnc3)c2c1` [Compound 7, 6-bromo-4-(1H-imidazol-1-yl)quinoline] was tested, and the IC50 [1] was over 10000 nM and the IC50 [2] was 1000 to 10000 nM.
`Cc1cc2c(-n3ccnc3)ccnc2cc1Cl` [Compound 16, 7-chloro-4-(1H-imidazol-1-yl)-6-methylquinoline] gave an IC50 [1] of 1000 to 10000 nM and an IC50 [2] of 500 to 1000 nM.
Work on `O=C(Cc1ccccc1)Nc1ccc(C(=O)Nc2ccc(C(=O)O)cc2)cc1` [Compound 26, 4-(4-(2-phenylacetamido)benzamido)benzoic acid] yielded an IC50 [1] of over 10000 nM and an IC50 [2] of over 10000 nM.
Work on `O=C(O)[C@@H](Cc1ccccc1)Nc1ncnc2c1CCCC2` [Compound 32, (5,6,7,8-tetrahydroquinazolin-4-yl)-D-phenylalanine] yielded an IC50 [1] of over 10000 nM and an IC50 [2] of over 10000 nM.
Work on `Brc1ccc2c(-n3ccnc3)ccnc2c1` [Compound 4, 7-bromo-4-(1H-imidazol-1-yl)quinoline] yielded an IC50 [1] of 1000 to 10000 nM and an IC50 [2] of 100 to 500 nM.
`Nc1ccc2c(-n3ccnc3)ccnc2c1` [Compound 9, 4-(1H-imidazol-1-yl)quinolin-7-amine] was tested, and the IC50 [2] was over 10000 nM.
`O=C(Nc1ccc(C(=O)Nc2ccccc2C(=O)O)cc1)c1ccc(I)cc1` [Compound 27, 2-(4-(4-iodobenzamido)benzamido)benzoic acid] showed an IC50 [1] of over 10000 nM and an IC50 [2] of over 10000 nM.

From patent US20220073470A1, “INHIBITORS OF CGAS ACTIVITY AS THERAPEUTIC AGENTS” (BELLBROOK LABS, LLC, priority 2019, published 2022)
